We go through 17 compounds from patent US20240217990A1 (Gilead Sciences, Inc., priority 2021, published 2024).

The EC50 is the concentration at which the effect is half-maximal.

Assay [1] has as its target T1, TLR8 (Homo sapiens, UniProt Q9NR97).
T1 construct: Human peripheral blood mononuclear cells (PBMCs) consist of lymphocytes, monocytes and dendritic cells that express TLR7, TLR8 and TLR9; endogenous in cells; host or cells: cryopreserved human PBMCs from healthy donors
T1 sequence (Q9NR97 27-1041): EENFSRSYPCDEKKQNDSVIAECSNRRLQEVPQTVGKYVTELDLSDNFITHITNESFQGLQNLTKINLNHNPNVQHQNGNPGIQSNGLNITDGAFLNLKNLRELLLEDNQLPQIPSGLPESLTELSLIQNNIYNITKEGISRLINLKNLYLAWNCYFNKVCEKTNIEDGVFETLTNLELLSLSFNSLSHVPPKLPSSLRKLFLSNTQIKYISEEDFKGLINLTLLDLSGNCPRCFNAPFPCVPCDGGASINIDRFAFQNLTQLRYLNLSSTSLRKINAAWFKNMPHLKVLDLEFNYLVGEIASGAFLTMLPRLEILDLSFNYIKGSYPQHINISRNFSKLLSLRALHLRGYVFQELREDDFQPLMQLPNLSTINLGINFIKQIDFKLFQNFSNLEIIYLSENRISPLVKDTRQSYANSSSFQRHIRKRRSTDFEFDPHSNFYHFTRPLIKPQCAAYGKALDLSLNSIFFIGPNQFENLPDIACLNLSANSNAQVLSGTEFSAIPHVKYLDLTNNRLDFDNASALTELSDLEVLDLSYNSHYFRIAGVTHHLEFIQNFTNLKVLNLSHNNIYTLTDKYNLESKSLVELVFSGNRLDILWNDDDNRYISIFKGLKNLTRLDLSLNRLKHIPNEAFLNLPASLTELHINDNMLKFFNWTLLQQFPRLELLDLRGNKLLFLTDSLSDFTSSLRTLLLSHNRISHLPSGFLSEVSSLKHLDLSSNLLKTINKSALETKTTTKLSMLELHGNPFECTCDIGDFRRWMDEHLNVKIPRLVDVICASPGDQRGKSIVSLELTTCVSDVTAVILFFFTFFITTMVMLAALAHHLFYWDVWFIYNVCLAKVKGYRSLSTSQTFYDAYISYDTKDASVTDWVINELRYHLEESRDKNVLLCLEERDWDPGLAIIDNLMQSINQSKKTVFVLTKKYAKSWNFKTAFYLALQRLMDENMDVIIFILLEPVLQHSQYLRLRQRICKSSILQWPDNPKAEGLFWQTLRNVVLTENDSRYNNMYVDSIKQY
In words: TLR8 human PBMC cell-based assay (antagonist, Compound A stimulated cytokine release). The conditions noted are these: human PBMCs; TLR8 agonist Compound A 800 nM, 6 hours; cytokines (TNFa and IL 12p40) in supernatant; read-out: TLR-8 EC50. An excerpt:
(§1) Human peripheral blood mononuclear cells (PBMCs) consist of lymphocytes, monocytes and dendritic cells that express TLR7, TLR8 and TLR9. These cells respond to TLR7, TLR8 and TLR9 ligand stimulation and produce cytokines and chemokines in vitro and in vivo. Human PBMCs are therefore suitable to be used in a cell-based assay to assess the in vitro potency of a TLR 7, 8, and/or 9 antagonist. The result is expected to be more translatable to the pharmacodynamics response in vivo than cell line-based assays.
Cryopreserved human PBMCs from healthy donors were thawed and resuspended in RPMI-1640 media with L-glutamine (Corning) supplemented with 10% Fetal Bovine Serum (Hyclone) and 1X Penicillin-Streptomycin (Corning). After counting, the cell density was adjusted to 2 million cells/ml and incubated for 1 hour at 37° C., 5% CO2 for recovery. Following the recovery, the cells were plated by adding 50 μl per well (100,000 cells) to 384-well cell culture plates (Greiner) containing 250 nl of test antagonists in 100% DMSO per well, in a 10 points dose response in quadruplicates. PBMCs were incubated in the presence of antagonists for one hour at 37° C., 5% CO2 before being stimulated with TLR8 agonist. Compound A (Gilead Sciences, U.S. Pat. No. 10,285,990) was used as the TLR8 agonist at a final concentration of 800 nM. PBMCs were incubated in the presence of antagonist and the TLR8 agonist for an additional 6 hours at 37° C., 5% CO2. At the end of the incubation, the cell culture plates were centrifuged at 500 g for 5 min, and the cell culture supernatant was collected. The level of cytokines (TNFa and IL 12p40) in the supernatant was measured by electrochemiluminescence immunoassays (Mesoscale Discovery) following manufacturer's recommended protocols. The level of cytokine measured was plotted against the antagonist concentration and fitted to a sigmoidal function to determine the EC50, which are shown below in Table 11.

The target of assay [2] is T2, TLR7 (Homo sapiens, UniProt Q9NYK1).
T2 construct: Human peripheral blood mononuclear cells (PBMCs) consist of lymphocytes, monocytes and dendritic cells that express TLR7, TLR8 and TLR9; endogenous in cells; host or cells: cryopreserved human PBMCs from healthy donors
T2 sequence (Q9NYK1 27-1049): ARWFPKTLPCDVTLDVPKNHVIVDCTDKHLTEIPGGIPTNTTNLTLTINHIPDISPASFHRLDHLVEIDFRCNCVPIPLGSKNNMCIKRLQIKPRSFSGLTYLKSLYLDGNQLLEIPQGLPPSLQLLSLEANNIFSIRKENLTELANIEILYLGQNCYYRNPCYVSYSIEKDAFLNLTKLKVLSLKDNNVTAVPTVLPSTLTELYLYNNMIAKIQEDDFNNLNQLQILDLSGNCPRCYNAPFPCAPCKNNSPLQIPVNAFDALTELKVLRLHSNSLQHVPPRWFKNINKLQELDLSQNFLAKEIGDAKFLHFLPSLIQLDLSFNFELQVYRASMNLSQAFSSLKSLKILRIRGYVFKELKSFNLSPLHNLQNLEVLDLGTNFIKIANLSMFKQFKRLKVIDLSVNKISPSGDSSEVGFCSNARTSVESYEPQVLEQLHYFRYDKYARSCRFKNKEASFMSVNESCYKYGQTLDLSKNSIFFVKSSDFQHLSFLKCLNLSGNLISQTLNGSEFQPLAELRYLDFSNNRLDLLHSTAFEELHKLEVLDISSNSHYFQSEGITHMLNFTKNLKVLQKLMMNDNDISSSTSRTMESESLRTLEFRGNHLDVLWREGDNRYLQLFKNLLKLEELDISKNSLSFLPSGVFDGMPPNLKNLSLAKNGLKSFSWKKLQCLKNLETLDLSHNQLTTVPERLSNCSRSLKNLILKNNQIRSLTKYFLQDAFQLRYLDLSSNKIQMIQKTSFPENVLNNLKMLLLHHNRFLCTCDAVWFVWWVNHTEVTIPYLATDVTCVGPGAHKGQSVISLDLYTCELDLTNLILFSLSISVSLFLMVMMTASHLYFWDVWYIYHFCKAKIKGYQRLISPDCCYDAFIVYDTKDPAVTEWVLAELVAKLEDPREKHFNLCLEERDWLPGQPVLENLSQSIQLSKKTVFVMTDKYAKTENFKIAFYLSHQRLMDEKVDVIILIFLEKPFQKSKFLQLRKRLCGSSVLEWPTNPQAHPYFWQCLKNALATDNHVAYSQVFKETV
In words: TLR7 human PBMC cell-based assay (antagonist, GS-986 stimulated cytokine release). The conditions noted are these: human PBMCs; TLR7 agonist GS-986 400 nM, 6 hours; cytokines (IL-6 and IFNα) in supernatant; read-out: TLR-7 EC50.
Description: as §1
Cryopreserved human PBMCs from healthy donors were thawed and resuspended in RPMI-1640 media with L-glutamine (Corning) supplemented with 10% Fetal Bovine Serum (Hyclone) and 1× Penicillin-Streptomycin (Corning). After counting, the cell density was adjusted to 2 million cells/ml and incubated for 1 hour at 37° C., 5% CO2 for recovery. Following the recovery, the cells were plated by adding 50 μl per well (100,000 cells) to 384-well cell culture plates (Greiner) containing 250 nl of test antagonists in 100% DMSO per well, in a 10 points dose response in quadruplicates. PBMCs were incubated in the presence of test antagonists for one hour at 37° C., 5% CO2 before being stimulated with a TLR7 or TLR9agonist. GS-986 (Gilead Sciences) was used as the TLR7 agonist at a final concentration of 400 nM. ODN-2216 (InvivoGen) was used as the TLR9 agonist at a final concentration of 3 μM. PBMCs were incubated in the presence of the test antagonist and the TLR7 (or TLR9) agonist for an additional 6 hours at 37° C., 5% CO2. At the end of the incubation, the cell culture plates were centrifuged at 500 g for 5 min, and the cell culture supernatant was collected. The level of cytokines (IL-6 and IFNα) in the supernatant was measured by electrochemiluminescence immunoassays (Mesoscale Discovery) following manufacturer's recommended protocols. The level of cytokine measured was plotted against the test antagonist concentration and fitted to a sigmoidal function to determine the EC50, which are shown below in Table 11.

Turning to `Cc1cc(-c2[nH]c3cc(C(=O)N4CCNC(=O)C4)sc3c2C(C)C)cn2ncnc12` [Example 40, 4-[6-isopropyl-5-(8-methyl-[1,2,4]triazolo[1,5-a]pyridin-6-yl)-4H-thieno[3,2-b]pyrrole-2-carbonyl]piperazin-2-one], the EC50 in assay [1] was found to be 115 nM; in assay [2] it was 17.8 nM.
As for `Cc1cc(-c2[nH]c3cc(C(=O)N4CCN(C)CC4)sc3c2C(C)C)cn2ncnc12` [Example 43], the EC50 is 2.6 nM in assay [1] and 6.4 nM in assay [2].
With `Cc1cc(-c2[nH]c3cc(C(=O)N4CCC(O)CC4)sc3c2C(C)C)cn2ncnc12` [Example 44], the concentration for a half-maximal effect (EC50) in assay [1] came out at 41.2 nM; in assay [2] it was 46.1 nM.
For the compound `Cc1cc(-c2[nH]c3cc(C(=O)N4CCN(CCO)CC4)sc3c2C(C)C)cc(C)n1` [Example 45], the results for the EC50 in assay [1] and in assay [2] were 31.7 nM and 355 nM, respectively.
The like results for `Cc1cc(-c2[nH]c3cc(-c4nc(C5CCNCC5)no4)sc3c2C(C)C)cn2ncnc12` [Example 46, 5-(6-isopropyl-5-(8-methyl-[1,2,4]triazolo[1,5-a]pyridin-6-yl)-4H-thieno[3,2-b]pyrrol-2-yl)-3-(piperidin-4-yl)-1,2,4-oxadiazole] were, in that order, 3.8 nM and 0.1 nM.
`CCc1c(-c2cc(C)c3ncnn3c2)[nH]c2cc(-c3nc(N4CCNCC4)no3)sc12` [Example 47]: the figures for the EC50 in assay [1] and in assay [2] were 2.1 nM and 0.6 nM, respectively.
For `Cc1cc(-c2[nH]c3cc(-c4nnc(C5CCNCC5)s4)sc3c2C(C)C)cn2ncnc12` [Example 48, 6-isopropyl-5-(8-methyl-[1,2,4]triazolo[1,5-a]pyridin-6-yl)-2-(5-(piperidin-4-yl)-1,3,4-thiadiazol-2-yl)-4H-thieno[3,2-b]pyrrole], the figures for the EC50 in assay [1] and in assay [2] were 5.4 nM and 1 nM, respectively.
On to `Cc1cc(-c2[nH]c3cc(-c4nnc(N5CCNCC5)s4)sc3c2C(C)C)cn2ncnc12` [Example 49], for which the EC50 in assay [1] is 3.2 nM; in assay [2], 0.4 nM.
For the compound `Cc1cc(-c2[nH]c3cc(C4=NC5(CCNCC5)CO4)sc3c2C(C)C)cn2ncnc12` [Example 50, 2-(6-isopropyl-5-(8-methyl-[1,2,4]triazolo[1,5-a]pyridin-6-yl)-4H-thieno[3,2-b]pyrrol-2-yl)-3-oxa-1,8-diazaspiro[4.5]dec-1-ene], the concentration for a half-maximal effect (EC50) in assay [1] came out at 4.6 nM; in assay [2] it was 0.2 nM.
For `Cc1cc(-c2[nH]c3cc(-c4ccc(N5CCNCC5)nc4)sc3c2C(C)C)cc(C)n1` [Example 51, 5-(2,6-dimethyl-4-pyridyl)-6-isopropyl-2-(6-piperazin-1-yl-3-pyridyl)-4F1-thieno[3,2-b]pyrrole], the EC50 was determined as 61.4 nM in assay [1] and 20.9 nM in assay [2].
`Cc1cc(-c2[nH]c3cc(-c4nnc(C5CCNCC5)o4)sc3c2C(C)C)cc(C)n1` [Example 52, 2-[5-(2,6-dimethyl-4-pyridyl)-6-isopropyl-4H-thieno[3,2-b]pyrrol-2-yl]-5-(4-piperidyl)-1,3,4-oxadiazole]: the EC50 in assay [1] worked out at 16 nM; in assay [2], 36.6 nM.
On to `Cc1cc(-c2[nH]c3cc(-c4nnc(N5CCNCC5)o4)sc3c2C(C)C)cc(C)n1` [Example 53], for which the results for the EC50 in assay [1] and in assay [2] were 16 nM and 74.7 nM, respectively.
Turning to `Cc1cc(-c2[nH]c3cc(-c4nc(N5CCNCC5)no4)sc3c2C(C)C)cc(C)n1` [Example 54, 5-[5-(2,6-dimethyl-4-pyridyl)-6-isopropyl-4H-thieno[3,2-b]pyrrol-2-yl]-3-piperazin-1-yl-1,2,4-oxadiazole], the EC50 in assay [1] was 7 nM; in assay [2] it was 3.7 nM.
As for `Cc1cc(-c2[nH]c3cc(-c4nc(C5CCNCC5)no4)sc3c2C(C)C)cc(C)n1` [Example 55], the EC50 is 14.9 nM in assay [1] and 7.6 nM in assay [2].
Regarding `Cc1cc(-c2[nH]c3cc(C(=O)N(C)C4CCNCC4)sc3c2C(C)C)cn2ncnc12` [Example 56, 6-isopropyl-N-methyl-5-(8-methyl-[1,2,4]triazolo[1,5-a]pyridin-6-yl)-N-(4-piperidyl)-4H-thieno[3,2-b]pyrrole-2-carboxamide], the values for the EC50 in assay [1] and in assay [2] were 10.2 nM and 0.5 nM, respectively.
The like results for `Cc1cc(-c2[nH]c3cc(C(=O)N(C)[C@@H]4CNC[C@@H]4F)sc3c2C(C)C)cn2ncnc12` [Example 57] were, in that order, 12.7 nM and 1.7 nM.
The like results for `Cc1cc(-c2[nH]c3cc(C(=O)N(C)[C@H]4CNC[C@@H]4F)sc3c2C(C)C)cn2ncnc12` [Example 58] were, in that order, 21.1 nM and 16.6 nM.
